Values of other authors, collected in US7390809B2, “Beta-amino heterocyclic dipeptidyl peptidase inhibitors for diabetes” (Merck & Co., Inc., priority 2002, dated 2008).
Values belong to the molecule of their own block, whether it stands above or below them.

What was measured:
[1] = system: cardiac allograft; details: rats; survival doubled from day 7
[2] = system: hematopoiesis; details: mouse, cyclophosphamide-induced neutropenia
[3] = target: T1, DP-IV (Homo sapiens, UniProt P27487)
T1 construct: GRF is rapidly degraded in plasma to GRF[3-44]
T1 sequence (P27487 whole entry): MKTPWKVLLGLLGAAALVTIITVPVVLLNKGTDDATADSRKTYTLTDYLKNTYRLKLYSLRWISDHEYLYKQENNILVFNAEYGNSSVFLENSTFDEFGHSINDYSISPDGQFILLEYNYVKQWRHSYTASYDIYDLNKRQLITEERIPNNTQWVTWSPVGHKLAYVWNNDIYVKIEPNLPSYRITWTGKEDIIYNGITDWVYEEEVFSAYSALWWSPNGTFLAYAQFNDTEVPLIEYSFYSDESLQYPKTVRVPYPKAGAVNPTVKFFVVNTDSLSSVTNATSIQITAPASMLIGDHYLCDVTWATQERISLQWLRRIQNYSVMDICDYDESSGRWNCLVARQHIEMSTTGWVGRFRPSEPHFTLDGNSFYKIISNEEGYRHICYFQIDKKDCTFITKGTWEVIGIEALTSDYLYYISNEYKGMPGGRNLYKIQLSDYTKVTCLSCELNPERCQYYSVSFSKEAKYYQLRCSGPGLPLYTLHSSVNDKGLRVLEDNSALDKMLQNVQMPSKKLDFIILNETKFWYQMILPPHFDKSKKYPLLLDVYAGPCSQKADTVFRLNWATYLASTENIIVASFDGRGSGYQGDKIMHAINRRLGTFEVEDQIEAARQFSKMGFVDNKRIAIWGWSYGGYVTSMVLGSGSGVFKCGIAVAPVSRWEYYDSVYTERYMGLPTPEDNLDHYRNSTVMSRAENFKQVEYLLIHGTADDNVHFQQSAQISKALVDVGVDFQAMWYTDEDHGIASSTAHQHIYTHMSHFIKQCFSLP

Molecule: CC(C)N1CCC(c2ccccc2)(c2ccccc2)CC1 [Prodipine, Pro-Pro-diphenyl-phosphonate]
- cardiac allograft survival [1]: 14 day

Molecule: CC(C)[C@H](N)C(=O)N1CCC[C@H]1B(O)O [Val-Boro-Pro]
- effect on hematopoiesis [2]: stimulated hematopoiesis

- degradation of GRF in plasma to GRF[3-44] [3]: prevented
Molecule: diprotin A
